Molecules are shown by their SMILES. Some results are limits rather than exact numbers.

What is called IC50 is the midpoint of a concentration-inhibition curve. Higher therefore signals lower potency.

One assay concerns Jurkat cell line. As to the kind of experiment: PARP cellular chemopotentiation assay (MTS cell viability with and without TMZ). The format is cell-based. The conditions noted are these: ratio of EC50 for inhibition of cell viability without and with 100 μM TMZ; Jurkat cells, 96 hours of treatment. Put shortly: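 Jurkat cells, 10,000/well, pre-cultured 24 h, then treated 96 h with serial compound dilutions (0.5% DMSO) with or without 100 μM TMZ. Viability by MTS conversion (OD490), normalized to DMSO controls; EC50 from curve fits, PF50 = EC50 without TMZ / EC50 with TMZ.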

The target of a further assay is T1, PARP (Homo sapiens, UniProt P09874).
T1 construct: purchased Trevigen 4684-096-01 (enzyme); kit 4684-096-K HT
As to the kind of experiment: PARP ELISA colorimetric assay of inhibition of PARP catalytic activity (IC50). The conditions noted are these: pIC50=-log(IC50), IC50 in molar concentration; ELISA-based PARP kit, 10 minutes of catalysis. The format is biochemical. Put shortly:
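Human PARP was added as a 0.1 nM solution to histone-coated wells with compound for a 10-min ambient preincubation. The reaction was started with 100 μM NAD+ solution plus activated DNA and run 10 min. PAR formation was detected by anti-PAR ELISA, colorimetric. IC50 came from a 12-point, 3-fold gradient fitted by nonlinear least squares to a Hill equation.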

T1 sequence (P09874 whole entry): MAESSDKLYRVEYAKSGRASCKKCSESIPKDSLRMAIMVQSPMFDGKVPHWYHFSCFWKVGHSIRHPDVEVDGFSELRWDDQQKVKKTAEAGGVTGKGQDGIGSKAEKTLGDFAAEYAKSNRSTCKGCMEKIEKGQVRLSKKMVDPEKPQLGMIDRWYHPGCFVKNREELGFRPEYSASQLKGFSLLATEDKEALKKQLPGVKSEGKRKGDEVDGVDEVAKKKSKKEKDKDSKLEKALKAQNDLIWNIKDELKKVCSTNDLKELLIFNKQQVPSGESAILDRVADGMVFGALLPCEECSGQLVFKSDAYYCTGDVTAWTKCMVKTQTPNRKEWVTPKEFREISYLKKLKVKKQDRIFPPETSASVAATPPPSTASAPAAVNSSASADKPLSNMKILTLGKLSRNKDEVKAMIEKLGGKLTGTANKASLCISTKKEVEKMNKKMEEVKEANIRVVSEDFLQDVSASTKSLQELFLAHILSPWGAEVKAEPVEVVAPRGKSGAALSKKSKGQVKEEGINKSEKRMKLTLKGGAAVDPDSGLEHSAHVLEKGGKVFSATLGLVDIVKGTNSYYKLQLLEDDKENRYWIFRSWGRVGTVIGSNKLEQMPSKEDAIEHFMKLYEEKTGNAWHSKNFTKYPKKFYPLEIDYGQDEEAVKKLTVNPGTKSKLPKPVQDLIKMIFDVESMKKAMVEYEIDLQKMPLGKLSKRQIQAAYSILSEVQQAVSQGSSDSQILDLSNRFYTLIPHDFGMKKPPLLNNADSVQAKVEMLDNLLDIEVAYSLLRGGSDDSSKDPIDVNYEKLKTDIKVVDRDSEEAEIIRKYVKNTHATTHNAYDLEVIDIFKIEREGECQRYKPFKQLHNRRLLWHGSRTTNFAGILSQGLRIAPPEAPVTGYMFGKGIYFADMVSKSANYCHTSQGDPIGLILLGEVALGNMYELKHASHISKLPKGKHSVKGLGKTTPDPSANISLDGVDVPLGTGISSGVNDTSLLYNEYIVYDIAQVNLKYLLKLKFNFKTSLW

Consider `Cc1cc(C(=O)NC2CC2)ccc1N1CCN(Cc2cnc3c(c2)NC(=O)[C@@H]2CCCCN32)CC1` [Compound 115, (S)—N-cyclopropyl-3-methyl-4-(4-((6-oxo-6,6a,7,8,9,10-hexahydro-5H-dipyrido[1,2-a:3′,2′-e]pyrazin-3-yl)methyl)piperazin-1-yl)benzamide], for which the PF50 in the assay on Jurkat cell line is above 2000. On PARP, this compound showed an IC50 of 15.8 to 39.8 nM.
For `O=C(NC1CC1)c1ccc(N2CCN(Cc3cnc4c(c3)NC(=O)[C@@H]3CCCCN43)CC2)c(F)c1` [Compound 116, (S)—N-cyclopropyl-3-fluoro-4-(4-((6-oxo-6,6a,7,8,9,10-hexahydro-5H-dipyrido[1,2-a:3′,2′-e]pyrazin-3-yl)methyl)piperazin-1-yl)benzamide], in the assay on Jurkat cell line, the PF50 is given as above 5000. At PARP, this compound gave an IC50 of at most 12.6 nM.
The like results for `O=C(NC1CC1)c1ccc(N2CCN(Cc3cnc4c(c3)NC(=O)[C@@H]3CCCCN43)CC2)c(Cl)c1` [Compound 117, (S)-3-chloro-N-cyclopropyl-4-(4-((6-oxo-6,6a,7,8,9,10-hexahydro-5H-dipyrido[1,2-a:3′,2′-e]pyrazin-3-yl)methyl)piperazin-1-yl)benzamide] were, in that order, above 5000 and 15.8 to 39.8 nM.
As to `COc1cc(C#N)ccc1N1CCN(Cc2cnc3c(c2)NC(=O)[C@@H]2CCCCN32)CC1` [Compound 118, (S)-3-methoxy-4-(4-((6-oxo-6,6a,7,8,9,10-hexahydro-5H-dipyrido[1,2-a:3′,2′-e]pyrazin-3-yl)methyl)piperazin-1-yl)benzonitrile], in the assay on Jurkat cell line, the PF50 is listed as above 5000. At PARP, this compound had a half-maximal inhibitory concentration (IC50) of at most 12.6 nM.
The like results for `CC1CN(c2ccccn2)CCN1Cc1cnc2c(c1)NC(=O)[C@@H]1CCCN21` (stereo partly drawn) [Compound 120, (6aS)-3-((2-methyl-4-(pyridin-2-yl)piperazin-1-yl)methyl)-6a,7,8,9-tetrahydropyrido[3,2-e]pyrrolo[1,2-a]pyrazin-6(5H)-one] were, in that order, “≧0” and at least 50.1 nM.
`O=C1Nc2cc(CC3CCN(c4ccc(Cl)cc4)CC3)cnc2N2CCC[C@@H]12` [Compound 122, (S)-3-((1-(4-chlorophenyl)piperidin-4-yl)methyl)-6a,7,8,9-tetrahydropyrido[3,2-e]pyrrolo[1,2-a]pyrazin-6(5H)-one]: the PF50 entry with Jurkat cell line is “≧0”. The half-maximal inhibitory concentration (IC50) at PARP was at least 50.1 nM.
On the same counts, the results for `N#Cc1ccc(N2CCN(Cc3cnc4c(c3)NC(=O)[C@@H]3CCCN43)CC2)cn1` [Compound 123, (S)-5-(4-((6-oxo-5,6,6a,7,8,9-hexahydropyrido[3,2-e]pyrrolo[1,2-a]pyrazin-3-yl)methyl)piperazin-1-yl)picolinonitrile] are above 10 and 15.8 to 39.8 nM.
With `CCNC(=O)c1cc(F)c(N2CCN(Cc3cnc4c(c3)NC(=O)[C@@H]3CCCN43)CC2)cc1F` [Compound 124, (S)—N-ethyl-2,5-difluoro-4-(4-((6-oxo-5,6,6a,7,8,9-hexahydropyrido[3,2-e]pyrrolo[1,2-a]pyrazin-3-yl)methyl)piperazin-1-yl)benzamide], the PF50 entry with Jurkat cell line was “≧0”. For the same compound, the IC50 against PARP was at least 50.1 nM.
On the same counts, the results for `CCNC(=O)c1ccc(N2CCN(Cc3cnc4c(c3)NC(=O)[C@@H]3CCCN43)CC2)cc1F` [Compound 125, (S)—N-ethyl-2-fluoro-4-(4-((6-oxo-5,6,6a,7,8,9-hexahydropyrido[3,2-e]pyrrolo[1,2-a]pyrazin-3-yl)methyl)piperazin-1-yl)benzamide] are “≧0” and at least 50.1 nM.
For `CCNC(=O)c1ccc(N2CCN(Cc3cnc4c(c3)NC(=O)[C@@H]3CCCN43)CC2)c(F)c1` [Compound 126, (S)—N-ethyl-3-fluoro-4-(4-((6-oxo-5,6,6a,7,8,9-hexahydropyrido[3,2-e]pyrrolo[1,2-a]pyrazin-3-yl)methyl)piperazin-1-yl)benzamide], the PF50 in the assay on Jurkat cell line is reported as above 5000. Further, on PARP, the IC50 was 15.8 to 39.8 nM.
The like results for `CCNC(=O)c1ccc(N2CCN(Cc3cnc4c(c3)NC(=O)[C@@H]3CCCN43)CC2)c(Cl)c1` [Compound 127, (S)-3-chloro-N-ethyl-4-(4-((6-oxo-5,6,6a,7,8,9-hexahydropyrido[3,2-e]pyrrolo[1,2-a]pyrazin-3-yl)methyl)piperazin-1-yl)benzamide] were, in that order, above 500 and 15.8 to 39.8 nM.
Turning to `CNS(=O)(=O)c1ccc(N2CCN(Cc3cnc4c(c3)NC(=O)[C@@H]3CCCN43)CC2)cc1` [Compound 128, (S)—N-methyl-4-(4-((6-oxo-5,6,6a,7,8,9-hexahydropyrido[3,2-e]pyrrolo[1,2-a]pyrazin-3-yl)methyl)piperazin-1-yl)benzenesulfonamide], the PF50 result in the assay on Jurkat cell line was “≧0”. This compound had an IC50 at PARP of at least 50.1 nM.
For the compound `Cc1cc(C#N)ccc1N1CCN(Cc2cnc3c(c2)NC(=O)[C@@H]2CCCN32)CC1` [Compound 129, (S)-3-methyl-4-(4-((6-oxo-5,6,6a,7,8,9-hexahydropyrido[3,2-e]pyrrolo[1,2-a]pyrazin-3-yl)methyl)piperazin-1-yl)benzonitrile], the PF50 in the assay on Jurkat cell line is reported as above 500. Besides, the IC50 against PARP was 15.8 to 39.8 nM.
On the same counts, the results for `Cc1cc(F)ccc1N1CCN(Cc2cnc3c(c2)NC(=O)[C@@H]2CCCN32)CC1` [Compound 130, (S)-3-((4-(4-fluoro-2-methylphenyl)piperazin-1-yl)methyl)-6a,7,8,9-tetrahydropyrido[3,2-e]pyrrolo[1,2-a]pyrazin-6(5H)-one] are above 2000 and 15.8 to 39.8 nM.
The like results for `CNC(=O)c1ccc(N2CCN(Cc3cnc4c(c3)NC(=O)[C@@H]3CCCN43)CC2)c(F)c1` [Compound 131, (S)-3-fluoro-N-methyl-4-(4-((6-oxo-5,6,6a,7,8,9-hexahydropyrido[3,2-e]pyrrolo[1,2-a]pyrazin-3-yl)methyl)piperazin-1-yl)benzamide] were, in that order, above 500 and at most 12.6 nM.
On the same counts, the results for `O=C(NC1CC1)c1ccc(N2CCN(Cc3cnc4c(c3)NC(=O)[C@@H]3CCCN43)CC2)c(F)c1` [Compound 132, (S)—N-cyclopropyl-3-fluoro-4-(4-((6-oxo-5,6,6a,7,8,9-hexahydropyrido[3,2-e]pyrrolo[1,2-a]pyrazin-3-yl)methyl)piperazin-1-yl)benzamide] are above 2000 and at most 12.6 nM.
For `CC(C)NC(=O)c1ccc(N2CCN(Cc3cnc4c(c3)NC(=O)[C@@H]3CCCN43)CC2)c(F)c1` [Compound 133, (S)-3-fluoro-N-isopropyl-4-(4-((6-oxo-5,6,6a,7,8,9-hexahydropyrido[3,2-e]pyrrolo[1,2-a]pyrazin-3-yl)methyl)piperazin-1-yl)benzamide], the PF50 in the assay with Jurkat cell line is above 2000. Further, on PARP, the IC50 was 15.8 to 39.8 nM.
The like results for `O=C(NC1CC1)c1ccc(N2CCN(Cc3cnc4c(c3)NC(=O)[C@@H]3CCCN43)CC2)c(Cl)c1` [Compound 134, (S)-3-chloro-N-cyclopropyl-4-(4-((6-oxo-5,6,6a,7,8,9-hexahydropyrido[3,2-e]pyrrolo[1,2-a]pyrazin-3-yl)methyl)piperazin-1-yl)benzamide] were, in that order, above 5000 and 15.8 to 39.8 nM.
The like results for `CC(C)NC(=O)c1ccc(N2CCN(Cc3cnc4c(c3)NC(=O)[C@@H]3CCCN43)CC2)c(Cl)c1` [Compound 135, (S)-3-chloro-N-isopropyl-4-(4-((6-oxo-5,6,6a,7,8,9-hexahydropyrido[3,2-e]pyrrolo[1,2-a]pyrazin-3-yl)methyl)piperazin-1-yl)benzamide] were, in that order, above 5000 and 15.8 to 39.8 nM.
On the same counts, the results for `CNC(=O)c1ccc(N2CCN(Cc3cnc4c(c3)NC(=O)[C@@H]3CCCN43)CC2)c(Cl)c1` [Compound 136, (S)-3-chloro-N-methyl-4-(4-((6-oxo-5,6,6a,7,8,9-hexahydropyrido[3,2-e]pyrrolo[1,2-a]pyrazin-3-yl)methyl)piperazin-1-yl)benzamide] are above 5000 and at most 12.6 nM.
As for `CCNC(=O)c1ccc(N2CCN(Cc3cnc4c(c3)NC(=O)[C@@H]3CCCN43)CC2)c(C)c1` [Compound 137, (S)—N-ethyl-3-methyl-4-(4-((6-oxo-5,6,6a,7,8,9-hexahydropyrido[3,2-e]pyrrolo[1,2-a]pyrazin-3-yl)methyl)piperazin-1-yl)benzamide], the PF50 with Jurkat cell line was above 5000. The compound further showed an IC50 against PARP of at most 12.6 nM.
On the same counts, the results for `CNC(=O)c1ccc(N2CCN(Cc3cnc4c(c3)NC(=O)[C@@H]3CCCN43)CC2)c(C)c1` [Compound 141, (S)—N,3-dimethyl-4-(4-((6-oxo-5,6,6a,7,8,9-hexahydropyrido[3,2-e]pyrrolo[1,2-a]pyrazin-3-yl)methyl)piperazin-1-yl)benzamide] are above 500 and at most 12.6 nM.

For the origin of these results see US9187497B2, “Substituted pyrido[3,2-e]pyrrolo[1,2-a]pyrazines as inhibitors of poly(ADP-ribose)polymerase (PARP)” (Takeda Phamaceutical Company Limited, priority 2009, dated 2015).
